US20160324863A1, “TARGETED CANCER TREATMENT BY HSP90 INHIBITORS GANETESPIB AND NVP-AUY922” (SYNTA PHARMACEUTICALS CORP., priority 2014, published 2016)
Read-outs that look alike come from different tables or passages of the source.

Columns and labels:
[1] = test system: UM-UC3 bladder cancer cell line; assay: CellTiter-Glo viability assay, UM-UC3; type: cell-based; settings: Homo sapiens, UMUC3, FGFR3 status WT, 72 hours, read-out: Ganetespib IC50
Experimental: (§1) Cellular viability was assessed using the CellTiter-Glo Luminescent Cell Viability Assay (Promega) according to manufacturer protocols. Bladder cancer cell lines were seeded into 96-well plates based on optimal growth rates determined empirically for each line. Twenty-four hours after plating, cells were dosed with graded concentrations of ganetespib for 72 hours. CellTiter-Glo was added (50% v/v) to the cells, and the plates incubated for 10 minutes prior to luminescent detection in a SpectraMax Plus 384 microplate reader (Molecular Devices). Data were normalized to percent of control and IC50 values used to determine the sensitivity of each line. For the comparative analyses with ganetespib and BGJ398, RT112 cells were treated with graded concentrations of each compound for 72 hours and cell viability measured as above. For the evaluation of apoptotic induction, caspase activity was assessed using the Caspase-Glo 3/7 assay (Promega) according to manufacturer protocols. Twenty-four hours after plating, RT112 cells were treated with graded concentrations of ganetespib for 24 hours. Caspase-Glo was added to cells (50% v/v) and the plates incubated for 1 hour prior to luminescent detection.

[2] = test system: 97-7 bladder cancer cell line; assay: CellTiter-Glo viability assay, 97-7; type: cell-based; settings: FGFR3 status S249C, 72 hours, read-out: Ganetespib IC50
Experimental: as §1

HT29 cells = assay: LC-MS/MS bioanalysis of ganetespib in HT29 cells; type: in vitro ADME, human; settings: 1 μM ganetespib, 8 hr
Experimental: (§2) Colon cancer cells were treated with 1 μM ganetespib for 5, 15, 30, 60 or 480 minutes. At each time point, media was collected and cell lysates were generated for subsequent bioanalysis of secreted and intracellular concentrations of ganetespib and its glucuronides. Equal protein concentrations from cell lysates or equal volumes of media were used for the bioanalysis. Samples were extracted by protein precipitation and analyzed by LC-MS/MS using an Agilent 1100 HPLC interfaced to an API 4000 tandem mass spectrometer (Applied Biosystems). A Phenomenex Kinetex 2.6 μm C18 (30×2.1 mm) column was used with a run time of 3.5 min per sample.

RT112 xenografts = assay: RT112 xenograft tumor model; type: in vivo; settings: ganetespib 150 mg/kg i.v. once weekly, 3 weeks
Experimental: CD-1 nude mice (Charles River Laboratories, Wilmington, Mass.) at 7-12 weeks of age were maintained in a pathogen-free environment and all in vivo procedures were approved by the Synta Pharmaceuticals Corp. Institutional Animal Care and Use Committee. RT112 cells (5×10^6) were subcutaneously implanted into female mice and animals bearing established tumors (˜150 mm^3) were randomized into treatment groups of 8. Mice were i.v. dosed with ganetespib (150 mg/kg) once weekly or p.o. dosed with BGJ398 (10 mg/kg) daily, either alone or in combination, for 3 weeks. Tumor growth inhibition was monitored by tumor volume measurements twice weekly. As a measurement of in vivo efficacy, the % T/C value was determined from the change in average tumor volumes of each treated group relative to the vehicle treated animals. Statistical significance was determined using two-way ANOVA followed by Bonferroni post tests.

[3] = test system: 639-V bladder cancer cell line; assay: CellTiter-Glo viability assay, 639-V; type: cell-based; settings: Homo sapiens, FGFR3 status R248C, 72 hours, read-out: Ganetespib IC50
Experimental: as §1

[4] = test system: SCaBER bladder cancer cell line; assay: CellTiter-Glo viability assay, SCaBER; type: cell-based; settings: Homo sapiens, FGFR3 status WT, 72 hours, read-out: Ganetespib IC50
Experimental: as §1

[5] = test system: J82 bladder cancer cell line; assay: CellTiter-Glo viability assay, J82; type: cell-based; settings: FGFR3 status K652E, 72 hours, read-out: Ganetespib IC50
Experimental: as §1

[6] = test system: BFTC bladder cancer cell line; assay: CellTiter-Glo viability assay, BFTC; type: cell-based; settings: FGFR3 status WT, 72 hours, read-out: Ganetespib IC50
Experimental: as §1

SW1463 cells = assay: LC-MS/MS bioanalysis of ganetespib in SW1463 cells; type: in vitro ADME, human; settings: 1 μM ganetespib, 8 hr
Experimental: as §2

RT112 cells = assay: LC-MS/MS bioanalysis of ganetespib and glucuronidated metabolites in RT112 cells; type: in vitro ADME; settings: 1 μM ganetespib, 24-hour time course
Experimental: (§3) In the first set of experiments, RT112 and SW780 cells were treated with graded concentrations of ganetespib or 17-DMAG (10-1000 nM) for 1 and 24 hours. Cell lysates were prepared for measurement of intracellular concentrations of the respective HSP90 inhibitors. RT112 and SW780 cells were also treated with 1 μM ganetespib for 15 minutes, 1, 4, 8 and 24 hours. At each time point cell lysates were prepared and media was collected for analysis of intracellular and secreted concentrations of ganetespib and its glucuronidated metabolites. Bioanalysis was performed on equal protein concentrations from cell lysates or equal volumes of media. All samples were ultimately extracted by protein precipitation and analyzed by LC-MS/MS using an Agilent 1100 HPLC interfaced to an API 4000 tandem mass spectrometer (Applied Biosystems). A Phenomenex Kinetex 2.6 μm C18 (30×2.1 mm) column was used with a run time of 3.5 min per sample.

[7] = test system: MGH-U3 bladder cancer cell line; assay: CellTiter-Glo viability assay, MGH-U3; type: cell-based; settings: FGFR3 status Y375C, 72 hours, read-out: Ganetespib IC50
Experimental: as §1

[8] = test system: RT4 bladder cancer cell line; assay: CellTiter-Glo viability assay, RT4; type: cell-based
Experimental: as §1

SW780 cells = assay: LC-MS/MS bioanalysis of ganetespib and glucuronidated metabolites in SW780 cells; type: in vitro ADME; settings: 1 μM ganetespib, by 24 hours
Experimental: as §3

[9] = test system: HT-1197 bladder cancer cell line; assay: CellTiter-Glo viability assay, HT-1197; type: cell-based; settings: Homo sapiens, HT1197, FGFR3 status WT, 72 hours, read-out: Ganetespib IC50
Experimental: as §1

[10] = test system: T24 bladder cancer cell line; assay: CellTiter-Glo viability assay, T24; type: cell-based; settings: FGFR3 status WT, 72 hours, read-out: Ganetespib IC50
Experimental: as §1

[11] = test system: SW-1710 bladder cancer cell line; assay: CellTiter-Glo viability assay, SW-1710; type: cell-based; settings: Homo sapiens, SW1710, FGFR3 status WT, 72 hours, read-out: Ganetespib IC50
Experimental: as §1

[12] = test system: HT-1376 bladder cancer cell line; assay: CellTiter-Glo viability assay, HT-1376; type: cell-based; settings: Homo sapiens, FGFR3 status WT, 72 hours, read-out: Ganetespib IC50
Experimental: as §1

CC(C)c1cc(-c2n[nH]c(=O)n2-c2ccc3c(ccn3C)c2)c(O)cc1O [ganetespib]
IC50 [1]: 33 nM
IC50 [2]: 38 nM
ganetespib present (HT29 cells): 13 nM
T/C value (RT112 xenografts): −23%
IC50 [3]: 10 nM
IC50 [4]: 10 nM
IC50 [5]: 18 nM
IC50 [6]: 17 nM
ganetespib present (SW1463 cells): ~190 nM
glucuronidated form of ganetespib within cells (RT112 cells): No glucuronidated form of ganetespib was detectable
IC50 [7]: 53 nM
IC50 ([8]; 72 hours (FIG. 8), read-out: IC50 values): > 1000 nM
IC50 ([8]; FGFR3 status FGFR3-TACC3, 72 hours, read-out: Ganetespib IC50): 1730 nM
intracellular ganetespib concentrations (SW780 cells): undetectable
IC50 [9]: 53 nM
IC50 [10]: 7 nM
IC50 [11]: 6 nM
IC50 [12]: 21 nM
